Assay results from PubChem BioAssay (NCI).
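Tested at 5 concentrations; 48 h exposure; 96-well plates; endpoints linearly interpolated, else capped at highest concentration. GI50: concentration for 50% inhibition of growth. TGI: concentration producing complete growth inhibition.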

Legend:
Experiment in all cases: inhibition of tumour cell growth, NCI panel, 48 h
HL-60(TB) leukemia = tested on: HL-60(TB) leukemia
MOLT-4 leukemia = tested on: MOLT-4 leukemia
UACC-62 melanoma = tested on: UACC-62 melanoma
HT29 colon = tested on: HT29 colon
NCI-H226 lung = tested on: NCI-H226 lung
ACHN renal = tested on: ACHN renal
HOP-92 NSCLC = tested on: HOP-92 NSCLC
NCI-H522 lung = tested on: NCI-H522 lung
SW-620 colon = tested on: SW-620 colon
LOX IMVI melanoma = tested on: LOX IMVI melanoma

| SMILES | TGI (HL-60(TB) leukemia) [µM] | TGI (MOLT-4 leukemia) [µM] | TGI (UACC-62 melanoma) [µM] | TGI (HT29 colon) [µM] | TGI (NCI-H226 lung) [µM] | TGI (ACHN renal) [µM] | GI50 (HOP-92 NSCLC) [µM] | TGI (HOP-92 NSCLC) [µM] | GI50 (NCI-H522 lung) [µM] | TGI (NCI-H522 lung) [µM] | GI50 (SW-620 colon) [µM] | TGI (SW-620 colon) [µM] | GI50 (MOLT-4 leukemia) [µM] | GI50 (UACC-62 melanoma) [µM] | GI50 (HT29 colon) [µM] | GI50 (LOX IMVI melanoma) [µM] | TGI (LOX IMVI melanoma) [µM] | GI50 (NCI-H226 lung) [µM] | GI50 (ACHN renal) [µM] | GI50 (HL-60(TB) leukemia) [µM] |
| --- | --- | --- | --- | --- | --- | --- | --- | --- | --- | --- | --- | --- | --- | --- | --- | --- | --- | --- | --- | --- |
| COc1cccc2c(SCC(=O)Nc3ccccc3-c3ccccc3NC(=O)CSc3c4ccccc4nc4c(OC)cccc34)c3ccccc3nc12 | > 100 | > 100 | > 100 | > 100 | > 100 | > 100 |  |  |  |  |  |  |  |  |  |  |  |  |  |  |
| CC(=O)CCc1ccc(Oc2c3c(nc4ccccc24)OCC3)cc1 |  | > 100 | > 100 | > 100 | 78.8 | > 100 | 42.9 | > 100 | 56.2 | > 100 | > 100 | > 100 | 91.9 | 34.1 | > 100 | > 100 | > 100 | 12.3 | 53.9 |  |
| O=C(O)/C(Cl)=C(Cl)/C=N/NC(=O)c1cc2ccccc2cc1O | > 100 | 34.9 | 14.6 | > 100 | 87.2 | > 100 |  | > 100 |  | 77 |  | > 100 |  |  |  |  |  |  |  |  |
| CCn1cc(C(=O)N/N=C/c2cccs2)c(=O)c2cc(F)c(N3CCNC(C)C3)c(F)c21 (stereo unspecified) |  |  | 2.96 | 3.12 |  | 3.04 | 1.09 | 2.38 |  |  | 1.71 | 3.17 |  | 1.61 | 1.67 |  |  |  | 1.67 |  |
| C=CCC(N[C@H](CO)c1ccccc1)c1ccccn1 (stereo partly specified) | > 100 |  | > 100 | > 100 | > 100 | > 100 |  |  | > 100 | > 100 | > 100 | > 100 |  | > 100 | > 100 | > 100 | > 100 | > 100 | > 100 | 38.6 |
| COc1cccc(N2CCN(c3ncnc4cc[nH]c34)CC2)c1 | 74 | 21.4 | 39.8 | > 100 | 75.7 | > 100 |  |  | 8.78 | 64.1 | 68.6 | > 100 | 2.46 | 6.05 | 20 | 13.9 | > 100 | 1.59 | 19 | 5.84 |
| O=C1C(Cl)=C(Nc2cc(Cl)ccc2O)C(=O)N1Cc1ccccc1 | 67.1 | > 81.9 | 30.8 | 59.9 | 21.9 | 31.9 |  |  | 15.1 | 30.5 | 19 | 38.5 | 29.7 | 16.2 | 16.4 | 16.7 | 32.2 | 8.66 | 17.2 | 25.6 |
| C[C@]12Cc3conc3C(O)=C1CC[C@@H]1C2CC[C@@]2(C)C1CC[C@]2(C)O (stereo partly specified) | 10.7 | 42.3 | 29.2 | 89.4 | 47.3 | 89.5 |  | 61.5 |  |  |  | > 100 |  |  |  |  | 22.7 |  |  |  |
| CC(=O)[CH-]C(=O)c1ccccc1.CC(=O)[CH-]C(=O)c1ccccc1.CC[C@H](/C=C/C(C)[C@H]1CCC2[C@@H]3CC=C4C[C@@H]([O-])CC[C@]4(C)C3CC[C@@]21C)C(C)C.CC[C@H](/C=C/C(C)[C@H]1CCC2[C@@H]3CC=C4C[C@@H]([O-])CC[C@]4(C)C3CC[C@@]21C)C(C)C.Cl.[Ti+4] (stereo partly specified) | 16.6 | > 25 | > 25 | > 25 | > 25 | > 25 |  |  | > 25 | > 25 | > 25 | > 25 | > 25 | > 25 | > 25 | > 25 | > 25 | > 25 | > 25 | 6.35 |
| Cc1nn(Cc2ccccc2)cc1C(=O)Nc1sc2c(c1C(N)=O)CCC(=O)C2 |  | 9.27 | 3.4 | 6.58 | 5.7 | 3.35 | 1.88 | 4.47 | 1.25 | 5.25 | 0.985 | 5.78 | 2.62 | 1.59 | 2.27 | 1.78 | 3.79 | 2.29 | 1.65 |  |
| Cc1cc(Cl)ccc1N=C1NC(=O)C(CC(=O)Nc2cccc(C)c2C)S1 (stereo unspecified) |  | > 100 | 71.3 | > 100 |  | 73.6 |  | 26.5 |  |  |  | > 100 |  |  |  |  | 80.6 |  |  |  |
| Nn1c(-c2cccc(Cl)c2)nc2ccccc2c1=O | > 100 | > 100 | > 100 | > 100 | > 100 | > 100 |  | > 100 |  | > 100 |  | > 100 |  |  |  |  |  |  |  |  |
